Assays:
[1] = system: Autobioluminescent Human Epithelial Kidney cells (HEK-293); test: Cellular metabolic activity, autobioluminescent kidney cells; format: cell-based; details: FIG. 7A; Hematin:RLS3 1:1,000; 0.5 pM-5 nM RLS3; 14-hour period post-exposure; kidney cell model
Protocol: (§1) Autobioluminescent Human Epithelial Kidney cells (HEK-293, 490 Biotech) and Human Liver cells (Hep-G2, 490 Biotech) and Human primary astrocytes (490 Biotech) were seeded at 10,000 kidney cells/well, or 50,000 liver cells/well, in 96-well tissue culture treated plates (Falcon) in growth media. The growth media consists of the following: DMEM (Hyclone), 10% heat-inactivated FBS (Gibco), 1% Sodium Pyruvate (HyClone), 1% antibiotic/antimyotic (Hyclone) and 100 μg G418/ml (Gibco). Cells were grown for 2 days prior to treatment with dimenadione derivative compounds. The media was aspirated and cells were washed with 1×PBS (Fisher, SH30256.01) and treated with serial dilutions ranging from 5 fM to 5 μM (1 mL/well) dimenadione derivative compounds. The treated cells were incubated at 37° C. and 5% CO2 for x hours. At each concentration, bioluminescence was measured with either a BMG Labtech clarioSTAR plate reader or an IVIS CCD camera system. Any changes in cell bioluminescence were recorded as photons/per well. […] The relative change in light output was measured between each treatment and the vehicle control at each timepoint. The amount of light being made is proportional to metabolic activity (as measured by FMNH2 availability, which provides the same information as a traditional ATP content assay (i.e., CellTiter Glo). […]

[2] = system: Human Liver cells (Hep-G2); test: Cellular metabolic activity, autobioluminescent liver cells; format: cell-based; details: for concentration-dependent effect on cellular metabolism over time: 24 h
Protocol: Autobioluminescent Human Epithelial Kidney cells (HEK-293, 490 Biotech) and Human Liver cells (Hep-G2, 490 Biotech) and Human primary astrocytes (490 Biotech) were seeded at 10,000 kidney cells/well, or 50,000 liver cells/well, in 96-well tissue culture treated plates (Falcon) in growth media. The growth media consists of the following: DMEM (Hyclone), 10% heat-inactivated FBS (Gibco), 1% Sodium Pyruvate (HyClone), 1% antibiotic/antimyotic (Hyclone) and 100 μg G418/ml (Gibco). Cells were grown for 2 days prior to treatment with dimenadione derivative compounds. […] The treated cells were incubated at 37° C. and 5% CO2 for x hours. At each concentration, bioluminescence was measured with either a BMG Labtech clarioSTAR plate reader or an IVIS CCD camera system. Any changes in cell bioluminescence were recorded as photons/per well. The replicates were averaged, and all conditions were normalized to background light detection (medium-only control wells). The vehicle-only controls were compared to the untreated controls to make sure there was not change in metabolic activity due to the solvent. All other treatments were then compared to the vehicle control. The relative change in light output was measured between each treatment and the vehicle control at each timepoint. The amount of light being made is proportional to metabolic activity (as measured by FMNH2 availability, which provides the same information as a traditional ATP content assay (i.e., CellTiter Glo).
5 fM to 5 μM (10 μL/well) of individual compounds solubilized in DMSO were incubated with cells in 96-well plates. The reference compound was DMSO-only vehicle control, at a final concentration of 0.1% DMSO. Importantly maximally effective concentrations of the compound, in the mid-picomolar to mid-nanomolar range, increased metabolic activity by as much as 2.5-fold. This observation aligns with the core hypothesized mechanism of the compound which has been designed to integrate into the mitochondrial ETC and improve energy production in the form of ATP in mitochondria. Increased energy production is reflected in overall cellular metabolism of the cells.

[3] = system: primary astrocytes; test: Cellular metabolic activity, autobioluminescent neuronal (astrocyte) cells; format: cell-based, murine; details: 24 hour period
Protocol: as §1

[4] = FIG. 8A, complexed with Hematin 1:1,000, 0.5 nM-5 μM, 24-hour period post-exposure, liver cells
[5] = complexed with hematin (FIG. 8A), liver cells
[6] = without hematin complexation (FIG. 8B), 1 pM-10 μM, liver cells

Structure (SMILES)	metabolic activity (bioluminescence) over time [1]	metabolic activity (bioluminescence) over time ([2]; FIG. 7B, Hematin:RLS3 1:1,000, 500 pM-5 μM RLS3, 14 h period post-exposure, liver cell model as printed)	metabolic activity (bioluminescence) over time [2, 4]	concentration-dependent effect on cellular metabolism over time [2, 5]	concentration-dependent effect on cellular metabolism over time [2, 6]	effect on cellular metabolism ([3]; FIG. 9A, 100 pM and 1 nM RLS5 with Hematoporphyrin complexation (1:1000))	effect on cellular metabolism ([3]; FIG. 9B, 100 pM and 1 nM RLS5 without Hematoporphyrin complexation)
COc1cc(C)c(OC)c2ccccc12 [RLS3, 1,4-Dimethoxy-2-Methylnaphthalene]	increase in metabolic activity over time	increase in metabolic activity over time	increase in metabolic activity over time	seemed to show a concentration-dependent effect	did not	–	–
COc1c(C)c(C=O)c(OC)c2ccccc12 [RLS4, 1,4-Dimethoxy-3-Methyl-2-Naphthaldehyde]	–	–	increase in metabolic activity over time	seemed to show a concentration-dependent effect	did not	–	–
COc1c(C)c(/C=C/C(=O)/C=C(O)/C=C/c2c(C)c(OC)c3ccccc3c2OC)c(OC)c2ccccc12 [RLS5, (1E,4Z,6E)-1,7-Bis(1,4-Dimethoxy-3-methylnaphthalen-2-yl)-5-Hydroxyhepta-1,4,6-trien-3-one]	–	–	–	–	–	slight concentration dependent effect	slight concentration dependent effect

Source: patent publication US12649709B2, “Naphthoquinone-based chalcone derivatives and uses thereof” (priority 2020, dated 2026)
